Patent US11963960B2 (Flash Therapeutics, LLC, priority 2020, dated 2024)

These compounds were tested against N-terminally GST-tagged HCK (75-526) (Homo sapiens (Human), UniProt P08631) (assay: HCK Kinase Assay (ProFluor Src-Family Kinase Assay)). Conditions: HCK inhibitory activity, 50 μM ATP; read-out: HCK Activity.
Chain of N-terminally GST-tagged HCK (75-526) (P08631 75-526): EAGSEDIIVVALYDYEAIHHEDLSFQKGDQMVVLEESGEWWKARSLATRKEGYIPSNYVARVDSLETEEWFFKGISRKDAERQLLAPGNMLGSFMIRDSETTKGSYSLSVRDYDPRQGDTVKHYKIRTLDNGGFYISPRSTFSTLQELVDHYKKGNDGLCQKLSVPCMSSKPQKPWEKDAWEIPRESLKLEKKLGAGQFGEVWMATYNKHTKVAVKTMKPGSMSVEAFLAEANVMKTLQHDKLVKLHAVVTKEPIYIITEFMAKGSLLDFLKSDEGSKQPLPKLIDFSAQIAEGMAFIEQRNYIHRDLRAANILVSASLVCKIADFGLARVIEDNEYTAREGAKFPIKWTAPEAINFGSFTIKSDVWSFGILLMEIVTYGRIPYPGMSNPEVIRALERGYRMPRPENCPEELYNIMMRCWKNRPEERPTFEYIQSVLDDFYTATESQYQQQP
Type: biochemical
Experimental: The procedure of ProFluor Src-Family Kinase Assay (Promega, Cat. No. V1271) was then followed. To the reaction was added 5 μL Protease solution and the mixture was incubated for 60 minutes at room temperature (22-25° C.), followed by 5 μL Stabilizer solution. The fluorescence signal was read on an Envision multilabel plate reader (Perkin Elmer). The R110 was then read at an excitation wavelength of 485 nm and an emission wavelength of 530 nm. The AMC signal was read at an excitation wavelength of 355 nm and an emission wavelength of 460 nm.
For C[C@H]1CN([C@H]2CC[C@H](n3cc(-c4ccc(Oc5ccccc5)cc4F)c4c(N)ncnc43)CC2)CCN1 [Example 126, 5-(2-fluoro-4-phenoxyphenyl)-7-((trans)-4-((S)-3-methylpiperazin-1-yl)cyclohexyl)-7H-pyrrolo[2,3-d]pyrimidin-4-amine], the IC50 was < 50 nM.
For CC[C@H]1CN([C@H]2CC[C@H](n3cc(-c4ccc(Oc5ccccc5)cc4)c4c(N)ncnc43)CC2)CCN1 [Example 29, 7-((trans)-4-((S)-3-ethylpiperazin-1-yl)cyclohexyl)-5-(4-phenoxyphenyl)-7H-pyrrolo[2,3-d]pyrimidin-4-amine], the IC50 was 50 to 250 nM.
For CN1CCN(CC2(O)CCC(n3cc(-c4ccc(Oc5ccccc5)cc4)c4c(N)ncnc43)CC2)CC1 (stereo not shown) [Example 100, 4-(4-Amino-5-(4-phenoxyphenyl)-7H-pyrrolo[2,3-d]pyrimidin-7-yl)-1-((4-methylpiperazin-1-yl)methyl)cyclohexanol], the IC50 was 50 to 250 nM.
Nc1ncnc2c1c(-c1ccc(Oc3ccccc3)cc1)cn2[C@H]1CC[C@H](N2CCC[C@@H](N)C2)CC1 [Example 59, 7-((trans)-4-((R)-3-aminopiperidin-1-yl)cyclohexyl)-5-(4-phenoxyphenyl)-7H-pyrrolo[2,3-d]pyrimidin-4-amine] was tested, and the IC50 was < 50 nM.
With Nc1ncnc2c1c(-c1ccc(Oc3ccccc3)cc1)cn2[C@H]1CC[C@H](N2CCC(N)CC2)CC1 [Example 52, 7-((trans)-4-(4-aminopiperidin-1-yl)cyclohexyl)-5-(4-phenoxyphenyl)-7H-pyrrolo[2,3-d]pyrimidin-4-amine] the IC50 was < 50 nM.
Compound Nc1ncnc2c1c(-c1ccc(Oc3ccccc3)cc1)cn2[C@H]1CC[C@@H](N2CCC(N)CC2)CC1 [Example 53, 7-((cis)-4-(4-aminopiperidin-1-yl)cyclohexyl)-5-(4-phenoxyphenyl)-7H-pyrrolo[2,3-d]pyrimidin-4-amine] has an IC50 of 50 to 250 nM.
With Nc1ncnc2c1c(-c1ccc(Oc3ccccc3)cc1)cn2[C@H]1CC[C@@H](N2CCN(N)CC2)CC1 [Example 39, 7-((cis)-4-(4-aminopiperazin-1-yl)cyclohexyl)-5-(4-phenoxyphenyl)-7H-pyrrolo[2,3-d]pyrimidin-4-amine] the IC50 was < 50 nM.
Nc1ncnc2c1c(-c1ccc(Oc3ccccc3)cc1F)nn2[C@H]1CC[C@H](N2CCN(CCO)CC2)CC1 [Example 10, 2-(4-((trans)-4-(4-amino-3-(2-fluoro-4-phenoxyphenyl)-1H-pyrazolo[3,4-d]pyrimidin-1-yl)cyclohexyl)piperazin-1-yl)ethanol] was tested, and the IC50 was < 50 nM.
In the case of C[C@H]1CN([C@H]2CC[C@H](n3cc(-c4ccc(Oc5ccccc5)cc4)c4c(N)ncnc43)CC2)CCN1C [Example 23, 7-((trans)-4-((S)-3,4-dimethylpiperazin-1-yl)cyclohexyl)-5-(4-phenoxyphenyl)-7H-pyrrolo[2,3-d]pyrimidin-4-amine], the IC50 is reported as < 50 nM.
CN1CCN([C@H]2CC[C@H](n3cc(-c4ccc(Oc5c(F)cccc5F)cc4)c4c(N)ncnc43)CC2)CC1 [Example 109, 5-(4-(2,6-difluorophenoxy)phenyl)-7-((trans)-4-(4-methylpiperazin-1-yl)cyclohexyl)-7H-pyrrolo[2,3-d]pyrimidin-4-amine] was tested, and the IC50 was < 50 nM.
COc1cc(-c2nn([C@H]3CC[C@H](N4CCN(C)CC4)CC3)c3ncnc(N)c23)ccc1Oc1ccccc1 [Example 110] was tested, and the IC50 was < 50 nM.
With Nc1ncnc2c1c(-c1ccc(Oc3ccccc3)cc1)cn2[C@H]1CC[C@H](N2CCN3CCC[C@@H]3C2)CC1 [Example 48, 7-((trans)-4-((R)-hexahydropyrrolo[1,2-a]pyrazin-2(1H)-yl)cyclohexyl)-5-(4-phenoxyphenyl)-7H-pyrrolo[2,3-d]pyrimidin-4-amine] the IC50 was < 50 nM.
In the case of CCN1CCN([C@H]2CC[C@H](n3nc(-c4ccc(Oc5ccccc5)cc4F)c4c(N)ncnc43)CC2)CC1 [Example 9, 1-((trans)-4-(4-ethylpiperazin-1-yl)cyclohexyl)-3-(2-fluoro-4-phenoxyphenyl)-1H-pyrazolo[3,4-d]pyrimidin-4-amine], the IC50 is reported as < 50 nM.
